The molecules below were run against BTK (Homo sapiens, UniProt Q06187) (assay: biochemical). Conditions: read-out: BTK inhibition (%).
Sequence of BTK (Q06187 402-655 limits assumed): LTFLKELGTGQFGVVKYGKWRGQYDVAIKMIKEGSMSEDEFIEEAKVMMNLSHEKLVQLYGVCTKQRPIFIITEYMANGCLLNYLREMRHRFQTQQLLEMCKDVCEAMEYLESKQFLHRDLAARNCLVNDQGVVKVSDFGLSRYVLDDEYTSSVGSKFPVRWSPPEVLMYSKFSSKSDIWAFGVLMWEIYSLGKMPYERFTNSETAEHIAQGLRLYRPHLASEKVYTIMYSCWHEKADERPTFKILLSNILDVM
`CCN1C[C@]2(COC)CC[C@H](OC)[C@]34C1[C@H]([C@H](OC)[C@H]23)[C@@]1(OC(C)=O)C[C@H](OC)[C@@]2(O)C[C@@H]4[C@@H]1[C@H]2OC(=O)c1ccc(OC)cc1` [PCM-0216304] gave an inhibition at 10 µM of -17%.
With `CCC1(c2cccc(O)c2)CCCCN(C)C1` (stereo not shown) [PCM-0086257] the inhibition at 10 µM was 7.8%.

Same assay, conditions: read-out: BTK inhibition (%), 0.75 uM BTK, […] probe 3l, 15 min preincubation
In the case of `Nc1ncnc2c1ncn2[C@@H]1O[C@H](CO)C[C@H]1O` [PCM-0101885], the inhibition at 10 µM is reported as 42%.
`CCOC(=O)C1=C(C)NC(C)=C(C(=O)OCC)C1` [PCM-0216569] gave an inhibition at 10 µM of 10.8%.
`O=C(NOCC(O)CO)c1cc(Br)c(F)c(F)c1Nc1ccc(I)cc1F` (stereo not shown) [PCM-0095128] showed an inhibition at 10 µM of -19.3%.
For `CN(C[C@@H]1COCCO1)S(=O)(=O)Nc1ccc2ccc3ncc(-c4cnn(C)c4)cc3c(=O)c2c1` [PCM-0095338], the inhibition at 10 µM was 33.1%.
`O=C1c2ccccc2-c2n[nH]c3cccc1c23` [PCM-0012406] showed an inhibition at 10 µM of 18.6%.
`NC(=O)[C@@H]1CCCN1C(=O)[C@H](Cc1cnc[nH]1)NC(=O)[C@@H]1CCC(=O)N1` [PCM-0214836] showed an inhibition at 10 µM of -5.4%.
Work on `Cc1nc(NC(=O)N2CCC[C@H]2C(N)=O)sc1-c1ccnc(C(C)(C)C(F)(F)F)c1` [PCM-0095427] yielded an inhibition at 10 µM of -7.6%.
Molecule `OC[C@H]1O[C@H](OC[C@H]2OC(O)[C@H](O)[C@@H](O)[C@@H]2O)[C@H](O)[C@@H](O)[C@H]1O` (stereo partly shown) [PCM-0215071] has an inhibition at 10 µM of -21.8%.
`CO/N=C(\C(=O)N[C@@H]1C(=O)N2C(C(=O)O)=C(CSc3nc(=O)c(O)nn3C)CS[C@H]12)c1csc(N)n1` [PCM-0215203] was tested, and the inhibition at 10 µM was -16.2%.
Work on `CCCCCCCCCCCCCCCC(=O)O[C@@H]1[C@@H](O)[C@@H](O)[C@@H]([C@H](NC(=O)[C@@H]2C[C@@H](CCC)CN2C)[C@H](C)Cl)O[C@@H]1SC` [PCM-0215167] yielded an inhibition at 10 µM of 73.2%.
`Cc1ccc(C(=O)Nc2cccc(C(F)(F)F)c2)cc1Nc1nc(-c2cccnc2)nc2c1cnn2C` [PCM-0095241] was tested, and the inhibition at 10 µM was 4.8%.
In the case of `O=C1CCc2ccc(O)cc2N1` [PCM-0215070], the inhibition at 10 µM is reported as 9.3%.
With `Cc1ccccc1-c1cc(N2CCN(C)CC2)ncc1N(C)C(=O)C(C)(C)c1cc(C(F)(F)F)cc(C(F)(F)F)c1` [PCM-0215667] the inhibition at 10 µM was 2.6%.
With `OC[C@@H](O)[C@@H](O[C@@H]1O[C@H](CO)[C@H](O)[C@H](O)[C@H]1O)[C@H](O)[C@@H](O)CO` [PCM-0090607] the inhibition at 10 µM was 17.8%.
In the case of `O=C(/C=C/C=C/c1ccccc1)CCc1ccccc1` [PCM-0216550], the inhibition at 10 µM is reported as 4.6%.
Molecule `CN1C(=O)[C@@H](NC(=O)c2n[nH]c(Cc3ccccc3)n2)COc2ccccc21` [PCM-0215843] has an inhibition at 10 µM of 6.2%.
Work on `COc1cc2c(cc1OC)[C@H]1[C@@H](C)c3ccc(OC)c(OC)c3CN1CC2` [PCM-0216500] yielded an inhibition at 10 µM of -27%.
Molecule `OCCOc1ccc(/C(=C(/CCCl)c2ccccc2)c2ccccc2)cc1` [PCM-0214796] has an inhibition at 10 µM of 73.9%.
`COc1ccc2[nH]cc(CCNC(C)=O)c2c1` [PCM-0065583] was tested, and the inhibition at 10 µM was 11.7%.
For `NC(=O)c1ccc(-c2nc(-c3ccc4c(c3)OCO4)c(-c3ccccn3)[nH]2)cc1` [PCM-0095013], the inhibition at 10 µM was 12.4%.
`NC(N)=NCCC[C@H](N)C(=O)NCC(=O)N[C@@H](CC(=O)O)C(=O)O` [PCM-0215176] showed an inhibition at 10 µM of 9.4%.
`Cc1cc(N2CCOCC2)ccc1Nc1nc(NC2CCCCC2)c2[nH]cnc2n1` [PCM-0215306] showed an inhibition at 10 µM of 33.2%.
Molecule `CCN(CC)c1ccc2cc(-c3nc4ccccc4s3)c(=O)oc2c1` [PCM-0215963] has an inhibition at 10 µM of -5.1%.
For `FC(F)(F)Oc1ccc2nc(-c3ccc(OCCOCCOc4ccc(-c5nc6ccc(OC(F)(F)F)cc6[nH]5)nc4)cn3)[nH]c2c1` [PCM-0215500], the inhibition at 10 µM was 32.4%.
Work on `COc1cccc2c1C(=O)c1c(O)c3c(c(O)c1C2=O)C[C@@](O)(C(=O)CO)C[C@@H]3O[C@H]1C[C@H](N)[C@H](O)[C@H](C)O1` [PCM-0086032] yielded an inhibition at 10 µM of 42.8%.
Work on `CC1(C)CCCC2(C)OC(=O)C=C12` (stereo not shown) [PCM-0214965] yielded an inhibition at 10 µM of 8.6%.
`COc1ccc(C(=O)CC(=O)c2ccc(C(C)(C)C)cc2)cc1` [PCM-0090378] showed an inhibition at 10 µM of -3.9%.
With `COCCCN1CCC(NC(=O)c2cc(Cl)c(N)c3c2OCC3)CC1` [PCM-0095543] the inhibition at 10 µM was -16.3%.
Work on `CC(C)(O)[C@H]1CC[C@@](C)([C@H]2[C@@H](O)C[C@@]3(C)[C@@H]4C[C@H](O[C@@H]5O[C@H](CO)[C@@H](O)[C@H](O)[C@H]5O)[C@H]5C(C)(C)[C@@H](O[C@@H]6OC[C@@H](O)[C@H](O)[C@H]6O)CC[C@@]56C[C@@]46CC[C@]23C)O1` [PCM-0214684] yielded an inhibition at 10 µM of 5.4%.
`N#CCC1(n2cc(-c3ncnc4[nH]ccc34)cn2)CN(C2CCN(C(=O)c3ccnc(C(F)(F)F)c3F)CC2)C1` [PCM-0216009] showed an inhibition at 10 µM of 12.4%.
Molecule `C[C@@]12C[C@@]3(O)O[C@@H](O1)[C@]1(COC(=O)c4ccccc4)[C@H]3C[C@@]12O[C@@H]1O[C@H](COC(=O)c2ccccc2)[C@@H](O)[C@H](O)[C@H]1O` [PCM-0216426] has an inhibition at 10 µM of -18.5%.
Work on `CN1C(=O)[C@@H](NC(=O)c2cc(Cc3ccccc3)on2)COc2ccccc21` [PCM-0213452] yielded an inhibition at 10 µM of 3.1%.
For `CN(c1ccccc1CNc1nc(Nc2ccc3c(c2)CC(=O)N3)ncc1C(F)(F)F)S(C)(=O)=O` [PCM-0215410], the inhibition at 10 µM was 91.7%.
With `C[C@@H]1C(=O)O[C@H]2[C@@H](O)[C@@]34[C@H]5C[C@@H](C(C)(C)C)[C@]36[C@@H](OC(=O)[C@@H]6O)O[C@@]4(C(=O)O5)[C@@]12O` [PCM-0214615] the inhibition at 10 µM was 16.3%.
Work on `Cc1c(C(=O)Nc2ccc(N3C[C@@H](C)O[C@@H](C)C3)nc2)cccc1-c1ccc(OC(F)(F)F)cc1` [PCM-0095316] yielded an inhibition at 10 µM of 6.2%.
`Cc1coc2c1C(=O)C(=O)c1c-2ccc2c(C)cccc12` [PCM-0094815] was tested, and the inhibition at 10 µM was -3.9%.
Work on `NC(=O)[C@@H]1CC[C@@H]2CN1C(=O)N2OS(=O)(=O)O` [PCM-0214883] yielded an inhibition at 10 µM of -9.3%.
`CCCN(CCc1cccs1)[C@H]1CCc2c(O)cccc2C1` [PCM-0214799] showed an inhibition at 10 µM of 14.8%.
For `CC1(C)CC[C@]2(C(=O)O)CC[C@]3(C)C(=CC[C@@H]4[C@@]5(C)CC[C@H](O)C(C)(C)[C@@H]5CC[C@]43C)[C@@H]2C1` [PCM-0214680], the inhibition at 10 µM was 27.2%.
With `CCOc1cc(C=O)ccc1OC(C)=O` [PCM-0216281] the inhibition at 10 µM was 4.6%.
`CC(C)Cn1cnc2c(N)nc3ccccc3c21` [PCM-0086321] gave an inhibition at 10 µM of -2.6%.
In the case of `Oc1ccc(Cc2nc3c(Cc4ccccc4)nc(-c4ccc(O)cc4)cn3c2O)cc1` [PCM-0215560], the inhibition at 10 µM is reported as 91.1%.
Molecule `CC[C@H](C)[C@H](N)C(=O)N[C@H]1CSSC[C@@H](C(=O)N[C@H](C(N)=O)[C@@H](C)O)NC(=O)[C@H](CCCN=C(N)N)NC(=O)[C@H](Cc2cnc[nH]2)NC(=O)[C@H](Cc2cnc[nH]2)NC(=O)CNC(=O)[C@H](Cc2c[nH]c3ccccc23)NC(=O)[C@H](CC(=O)O)NC(=O)[C@H](CCC(N)=O)NC(=O)[C@H](C(C)C)NC(=O)[C@H](C(C)C)NC1=O` [PCM-0215822] has an inhibition at 10 µM of -3.4%.
`CC(C)c1cnn2c(NCc3ccccc3-n3cccn3)nc(OC3CCCNC3)nc12` (stereo not shown) [PCM-0215792] showed an inhibition at 10 µM of -2.8%.
`CC(C(=O)O)c1ccc(C(=O)c2cccs2)cc1` (stereo not shown) [PCM-0086408] showed an inhibition at 10 µM of -1.4%.
`COc1cccc(-n2c(=O)[nH]c3cc(Cl)n(-c4ccc(-c5cccc(OC)c5O)cc4)c3c2=O)c1` [PCM-0215555] was tested, and the inhibition at 10 µM was 99.3%.
`C[C@@H]1C(=O)O[C@H](C)[C@H]1C[C@@H](O)[C@](C)(O)[C@H]1CC[C@@]2(O)C3=CC(=O)[C@@H]4C[C@@H](O)[C@@H](O)C[C@]4(C)[C@H]3CC[C@]12C` [PCM-0216317] gave an inhibition at 10 µM of -5.4%.
